Results as given in US11753407B2, “Compounds for treating spinal muscular atrophy” (PTC Therapeutics, Inc., priority 2012, dated 2023).

Legend:
[1] = test system: SMN2 minigene mRNA (SMN2-A minigene) in HEK293H cells; assay: SMN2 minigene mRNA splicing RT-qPCR assay in cultured cells; type: cell-based, human; conditions: Homo sapiens, HEK293-H; concentration increasing full length SMN2 mRNA 1.5-fold relative to vehicle-treated cells; HEK293H cells with SMN2-A minigene, 24 hours, 7-point concentration data; read-out: EC1.5x for production of full length SMN2 mRNA
Experimental: The reverse transcription-quantitative PCR-based (RT-qPCR) assay is used to quantify the level of the full length SMN2 minigene mRNA containing SMN2 exon 7 in a HEK293H cell line stably transfected with said minigene and treated with a test compound.
Protocol. HEK293H cells stably transfected with the SMN2-A minigene construct described above (10,000 cells/well) are seeded in 200 μL of cell culture medium (DMEM plus 10% FBS, with 200 μg/mL hygromycin) in 96-well flat-bottom plates and the plate is immediately swirled to ensure proper dispersal of cells, forming an even monolayer of cells. Cells are allowed to attach for at least 4-6 hours. Test compounds are serially diluted 3.16-fold in 100% DMSO to generate a 7-point concentration curve. A solution of test compound (1 μL, 200× in DMSO) is added to each cell-containing well and the plate is incubated for 24 hours in a cell culture incubator (37° C., 5% CO2, 100% relative humidity). 2 replicates are prepared for each test compound concentration. The cells are then lysed in Cells-To-Ct lysis buffer and the lysate is stored at −80° C.
Primer SMN Forward A (SEQ ID NO. 1) hybridizes to a nucleotide sequence in exon 7 (nucleotide 22 to nucleotide 40), primer SMN Reverse A (SEQ ID NO. 2) hybridizes to a nucleotide sequence in the coding sequence of Firefly luciferase, SMN Probe A (SEQ ID NO. 3) hybridizes to a nucleotide sequence in exon 7 (nucleotide 50 to nucleotide 54) and exon 8 (nucleotide 1 to nucleotide 21). The combination of these three oligonucleotides detects only SMN1 or SMN2 minigenes (RT-qPCR) and will not detect endogenous SMN1 or SMN2 genes.
The SMN forward and reverse primers are used at final concentrations of 0.4 μM. The SMN probe is used at a final concentration of 0.15 μM. The GAPDH primers are used at final concentrations of 0.2 μM and the probe at 0.15 μM.
The SMN2-minigene GAPDH mix (15 μL total volume) is prepared by combining 7.5 μL of 2× RT-PCR buffer, 0.4 μL of 25× RT-PCR enzyme mix, 0.75 μL of 20× GAPDH primer-probe mix, 4.0075 μL of water, 2 μL of 10-fold diluted cell lysate, 0.06 μL of 100 μM SMN forward primer, 0.06 μL of 100 μM SMN reverse primer, and […].
PCR is carried out at the following temperatures for the indicated time: Step 1: 48° C. (15 min); Step 2: 95° C. (10 min); Step 3: 95° C. (15 sec); Step 4: 60° C. (1 min); then repeat Steps 3 and 4 for a total of 40 cycles.
Each reaction mixture contains both SMN2-A minigene and GAPDH primers/probe sets (multiplex design), allowing simultaneous measurement of the levels of two transcripts.
Two SMN spliced products are generated from the SMN2 minigene. The first spliced product containing exon 7, corresponding to full length SMN2 mRNA, is referred to herein using the term “SMN2 minigene FL.” The second spliced product lacking exon 7 is referred to herein using the term “SMN2 minigene Δ7.”
The increase of SMN2 minigene FL mRNA relative to that in cells treated with vehicle control is determined from real-time PCR data using a modified ΔΔCt method (as described in Livak and Schmittgen, Methods, 2001, 25:402-8). The amplification efficiency (E) is calculated from the slope of the amplification curve for SMN2 minigene FL and GAPDH individually. The abundances of SMN2 minigene FL and GAPDH are then calculated as (1+E)^−Ct, where Ct is the threshold value for each amplicon. The abundance of SMN2 minigene FL is normalized to GAPDH abundance. The normalized SMN2 minigene FL abundance from test compound-treated samples is then divided by normalized SMN2 minigene FL abundance from vehicle-treated cells to determine the level of SMN2 FL mRNA relative to vehicle control.
For compounds of Formula (I) or a form thereof disclosed herein, Table 4 provides the […] for production of full length SMN2 mRNA that was obtained from the 7-point concentration data generated for each test compound according to the procedure of Biological Example 2. […]

[2] = test system: Smn protein in SMA patient fibroblast cells (GM03813); assay: Smn protein assay in cultured cells (SMN HTRF); type: cell-based, human; conditions: SMA patient fibroblast cells, 48 hours; for maximum fold (Fold) increase of Smn protein: 7-point concentration data, fold relative to vehicle control; for EC1.5x for Smn protein expression: 7-point concentration curve, SMN HTRF, concentration producing 1.5 times Smn protein vs DMSO vehicle control
Experimental: The SMN HTRF (homogeneous time resolved fluorescence) assay is used to quantify the level of Smn protein in SMA patient fibroblast cells treated with test compounds.
Protocol. Cells are thawed and cultured in DMEM-10% FBS for 72 hours. Cells are trypsinized, counted and re-suspended to a concentration of 25,000 cells/mL in DMEM-10% FBS. The cell suspension is plated at 5,000 cells per well in a 96 well microtiter plate and incubated for 3 to 5 hours. […] Test compounds are serially diluted 3.16-fold in 100% DMSO to generate a 7-point concentration curve. 1 μL of test compound solution is transferred to cell-containing wells and cells are incubated for 48 hours in a cell culture incubator (37° C., 5% CO2, 100% relative humidity). Triplicate samples are set up for each test compound concentration. After 48 hours, the supernatant is removed from the wells and 25 μL of the RIPA lysis buffer, containing protease inhibitors, is added to the wells and incubated with shaking at room temperature for 1 hour. 25 μL of the diluent is added and then 35 μL of the resulting lysate is transferred to a 384-well plate, where each well contains 5 μL of the antibody solution (1:100 dilution of anti-SMN d2 and anti-SMN kryptate in SMN reconstitution buffer). The plate is centrifuged for 1 minute to bring the solution to the bottom of the wells, then incubated overnight at room temperature. Fluorescence for each well of the plate at 665 nm and 620 nm is measured on an EnVision multilabel plate reader (Perkin-Elmer).
The normalized fluorescence signal is calculated for each sample, Blank and vehicle control well by dividing the signal at 665 nm by the signal at 620 nm. Normalizing the signal accounts for possible fluorescence quenching due to the matrix effect of the lysate. The ΔF value (a measurement of Smn protein abundance as a percent value) for each sample well is calculated by subtracting the normalized average fluorescence for the Blank control wells from the normalized fluorescence for each sample well, then dividing this difference by the normalized average fluorescence for the Blank control wells and multiplying the resulting value by 100. The ΔF value for each sample well represents the Smn protein abundance from test compound-treated samples. The ΔF value for each sample well is divided by the ΔF value for the vehicle control wells to calculate the fold increase in Smn protein abundance relative to the vehicle control.
For compounds of Formula (I) or a form thereof disclosed herein, Table 9 provides the EC1.5× for Smn protein expression that was obtained from the 7-point concentration data generated for each test compound according to the procedure of Biological Example 7. The term “EC1.5× for Smn protein expression” is defined as that concentration of test compound that is effective in producing 1.5 times the amount of Smn protein in an SMA patient fibroblast cell compared to the amount produced from the DMSO vehicle control. An EC1.5× for Smn protein expression between >3 μM and ≤10 μM is indicated by one star (*), an EC1.5× between >1 μM and ≤3 μM is indicated by two stars (**), an EC1.5× between >0.3 μM and ≤1 μM is indicated by three stars (***) and an EC1.5x≤0.3 μM is indicated by four stars (****).
For compounds of Formula (I) or a form thereof disclosed herein, Table 10 provides the maximum fold (Fold) increase of Smn protein that was obtained from the 7-point concentration data generated for each test compound according to the procedure of Biological Example 7. A maximum fold increase of ≤1.2 is indicated by one star (*), a fold increase between >1.2 and ≤1.35 is indicated by two stars (**), a fold increase between >1.35 and ≤1.5 is indicated by three stars (***), a fold increase between >1.5 and ≤1.65 is indicated by four stars (****) and a fold increase >1.65 is indicated by five stars (*****).

| SMILES | EC (1.5-fold increase) [1] [µM] | maximum fold (Fold) increase of Smn protein [2] | EC1.5x for Smn protein expression [2] |
| --- | --- | --- | --- |
| COc1ccc(-c2cc(=O)n3cc(N4CCCNCC4)ccc3n2)cc1OC [Compound 10, 7-(1,4-diazepan-1-yl)-2-(3,4-dimethoxyphenyl)-4H-pyrido[1,2-a]pyrimidin-4-one] | 1 to 3 | ** (a fold increase between >1.2 and ≤1.35 is indicated by two stars (**)) | – |
| COc1ccc(-c2cc(=O)n3cc(N4CCNC(C)(C)C4)ccc3n2)cc1 [Compound 17, 7-(3,3-dimethylpiperazin-1-yl)-2-(4-methoxyphenyl)-4H-pyrido[1,2-a]pyrimidin-4-one] | 1 to 3 | * (A maximum fold increase of ≤1.2 is indicated by one star (*)) | – |
| COc1cccc(-c2cc(=O)n3cc(N4CCCNCC4)ccc3n2)c1 [Compound 27, 7-(1,4-diazepan-1-yl)-2-(3-methoxyphenyl)-4H-pyrido[1,2-a]pyrimidin-4-one] | 3 to 30 | * (A maximum fold increase of ≤1.2 is indicated by one star (*)) | – |
| O=c1cc(-c2cc(F)c(O)c(F)c2)nc2ccc(N3CCNCC3)cn12 [Compound 71, 2-(3,5-difluoro-4-hydroxyphenyl)-7-(piperazin-1-yl)-4H-pyrido[1,2-a]pyrimidin-4-one] | 1 to 3 | **** (a fold increase between >1.5 and ≤1.65 is indicated by four stars (****)) | * (An EC1.5× for Smn protein expression between >3 μM and ≤10 μM is indicated by one star (*)) |
| O=c1cc(-c2cc(F)cc(C(F)(F)F)c2)nc2ccc(N3CCNCC3)cn12 [Compound 76, 2-[3-fluoro-5-(trifluoromethyl)phenyl]-7-(piperazin-1-yl)-4H-pyrido[1,2-a]pyrimidin-4-one] | 0.3 to 1 | ** (a fold increase between >1.2 and ≤1.35 is indicated by two stars (**)) | – |
| COc1ccc(-c2cc(=O)n3cc(N4CCNCC4)ccc3n2)cc1OC(F)F [Compound 99, 2-[3-(difluoromethoxy)-4-methoxyphenyl]-7-(piperazin-1-yl)-4H-pyrido[1,2-a]pyrimidin-4-one] | 0.3 to 1 | **** (a fold increase between >1.5 and ≤1.65 is indicated by four stars (****)) | *** (an EC1.5× between >0.3 μM and ≤1 μM is indicated by three stars (***)) |
| O=c1cc(-c2ccc3nccn3c2)nc2ccc(N3CCNCC3)cn12 [Compound 108, 2-(imidazo[1,2-a]pyridin-6-yl)-7-(piperazin-1-yl)-4H-pyrido[1,2-a]pyrimidin-4-one] | 0.1 to 0.3 | *** (a fold increase between >1.35 and ≤1.5 is indicated by three stars (***)) | – |
| Cc1cn2cc(-c3cc(=O)n4cc(N5CCN(C)CC5)ccc4n3)ccc2n1 [Compound 114, 2-(2-methylimidazo[1,2-a]pyridin-6-yl)-7-(4-methylpiperazin-1-yl)-4H-pyrido[1,2-a]pyrimidin-4-one] | 1 to 3 | *** (a fold increase between >1.35 and ≤1.5 is indicated by three stars (***)) | – |
| Cc1cn2cc(-c3cc(=O)n4cc(N5CCN[C@@H](C)C5)ccc4n3)ccc2n1 [Compound 115, 2-(2-methylimidazo[1,2-a]pyridin-6-yl)-7-[(3S)-3-methylpiperazin-1-yl]-4H-pyrido[1,2-a]pyrimidin-4-one] | < 0.1 | **** (a fold increase between >1.5 and ≤1.65 is indicated by four stars (****)) | **** (an EC1.5x≤0.3 μM is indicated by four stars (****)) |
| Cc1cn2cc(-c3cc(=O)n4cc(N5CCCNCC5)ccc4n3)ccc2n1 [Compound 116, 7-(1,4-diazepan-1-yl)-2-(2-methylimidazo[1,2-a]pyridin-6-yl)-4H-pyrido[1,2-a]pyrimidin-4-one] | 0.1 to 0.3 | *** (a fold increase between >1.35 and ≤1.5 is indicated by three stars (***)) | * (An EC1.5× for Smn protein expression between >3 μM and ≤10 μM is indicated by one star (*)) |
| Cc1cn2nc(-c3cc(=O)n4cc(N5CCNCC5)ccc4n3)cc2c(C)n1 [Compound 120, 2-(4,6-dimethylpyrazolo[1,5-a]pyrazin-2-yl)-7-(piperazin-1-yl)-4H-pyrido[1,2-a]pyrimidin-4-one] | < 0.1 | ***** (a fold increase >1.65 is indicated by five stars (*****)) | **** (an EC1.5x≤0.3 μM is indicated by four stars (****)) |
